The target of this experiment is T1, EDG-1/S1P1 receptor (Homo sapiens, UniProt P21453).
T1 construct: expressed in transfected cells; host or cells: U2OS (human osteogenic sarcoma), EDG-1 Transfluor U2OS WT Clone #37
The experiment can be described thus: In Vitro Cell Based Receptor Activation Assay-Transfluor Assay. The conditions noted are these: EDG-1 Transfluor U2OS WT Clone #37 cells; beta-arrestin GFP relocalization in presence of S1P. An excerpt:
This cell-based assay was designed to assess the ability of small molecule antagonists to inhibit activation of the GPCR S1P1 in the presence of its cognate ligand S1P. The assay used technology initially developed by Norak Biosciences (Xsira Pharmaceutical) and presently owned by Molecular Devices. A human osteogenic sarcoma (U2OS) cell line overexpressing the EDG-1/S1P1) receptor as well as a beta-arrestin/green fluorescent protein (GFP) construct hereafter termed EDG-1 Transfluor U2OS WT Clone #37 was employed.
Using a high content screening approach (Cellomics Arrayscan), receptor activity was measured by assessment of the relocalization of beta-arrestin GFP in response to stimulation of EDG-1 by S1P. Specifically, EDG-1 Transfluor U2OS WT Clone #37 cells were plated at a density of 6250 cells in 40 uL medium per well in 384 well plastic bottomed inicrotiter plates (BD Falcon) and incubated overnight at 37° C./5% CO2. Prior to screening, compounds were dissolved in 100% dimethyl sulfoxide (DMSO) to a final stock concentration of 10 mM. Compounds were then serially diluted at 30× final concentration in EDG-1 Transfluor cell growth medium containing 30% DMSO using the Tecan Genesis instrument. […] Plates were then sealed and analysed on the Cellomics Arrayscan using the GPCR signalling algorithm. EC50 values were then calculated using IDBS ActivityBase software.

Each structure is given as a SMILES string.

T1 sequence (P21453 whole entry): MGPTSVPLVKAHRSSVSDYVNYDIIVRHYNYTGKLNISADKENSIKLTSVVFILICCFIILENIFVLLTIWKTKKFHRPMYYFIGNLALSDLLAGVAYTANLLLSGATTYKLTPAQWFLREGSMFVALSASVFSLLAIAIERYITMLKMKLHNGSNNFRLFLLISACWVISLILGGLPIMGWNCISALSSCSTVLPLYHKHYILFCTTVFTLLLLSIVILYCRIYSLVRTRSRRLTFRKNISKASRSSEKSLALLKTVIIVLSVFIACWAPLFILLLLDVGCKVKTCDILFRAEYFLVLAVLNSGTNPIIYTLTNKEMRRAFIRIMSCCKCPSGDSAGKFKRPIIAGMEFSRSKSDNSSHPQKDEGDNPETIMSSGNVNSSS

For orientation: EC50 means the concentration at which the effect is half-maximal. As to `Cc1cnc(C(Cc2ccccc2)NS(=O)(=O)c2ccc(Cl)cc2)n1C` (stereo not shown) [Example 1, 4-Chloro-N-[1-(1,5-dimethyl-1H-imidazol-2-yl)-2-phenylethyl]benzenesulfonamide], the EC50 was determined as 2120 nM.

The values above are taken from patent publication US20090105324A1, “IMIDAZOLE DERIVATIVES FOR USE AS EDG-1 ANTAGONISTS” (AstraZeneca AB, priority 2006, published 2009).
